Measured values taken from US11744802B2, “Therapeutic compositions for treatment of human immunodeficiency virus” (Gilead Sciences, Inc., priority 2015, dated 2023).
Read-outs that look alike come from different tables or passages of the source.

What was measured:
[1] = Relative bioavailability and food-effect crossover study, cohort 1 (bilayer tablet F2 vs F1 co-administered with F3); conditions: for AUC(0-inf): AUCinf; for AUC(0-t): AUClast
Description: Studies were carried out to assess the pharmacokinetic profiles of the formulations F1, F2, and F3 of Examples 1, 2, and 2A. A randomized, open-label, multiple-period, fixed-sequence, crossover study was performed to evaluate the relative bioavailability of bilayer tablet formulation F2 compared with that of single agent tablet formulation F1 co-administered simultaneously with a fixed-dose combination tablet containing emtricitabine and tenofovir alafenamide (tablet formulation F3). The bioavailability was evaluated in healthy subjects.
The following plasma pharmacokinetic parameters were calculated: Cmax, AUClast, and AUCinf.
Pharmacokinetics: Plasma concentrations and PK parameters were listed and summarized by analyte and treatment group using descriptive statistics. In addition, a parametric analysis of variance using a mixed-effects model appropriate for a crossover design was fitted to the natural logarithmic transformation of the PK parameters (AUCinf, AUClast, and Cmax).

[2] = Food effect on single dose Compound of Formula I 100 mg single agent tablet (8 subjects); format: in vivo, human; conditions: for AUC(0-inf) / AUC(0-t) / Cmax: human, plasma, oral, 100 mg, mean, Compound of Formula I 100 mg single agent tablet, n = 8
Description: In this study, a single dose of the compound of Formula I was administered in two periods with fixed sequence under fasted and fed conditions respectively. A washout of at least five half-lives was required between fasted and fed sequences.
Subjects continued to fast until 4 hours post dose or until collection of the 4-hour postdose blood sample.
The 90% CI for the geometric least square mean (GLSM) ratios for fast versus fed was constructed. The statistical comparison of the pharmacokinetic parameters of the compound of Formula 1 following single dose administration of this tablet formulation in fed and fasted states is presented in the table below.

[3] = Pharmacokinetic study cohort 2 (bilayer tablet F7 vs F1 + F3; food effect on F7); conditions: for AUCinf, Mean (% CV) / Cmax, Mean (% CV) / AUClast, Mean (% CV): plasma;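 on all read-outs here: plasma PK parameters per analyte summarized descriptively, with GLSM ratios derived from mixed-effects ANOVA on ln-transformed values (treatment as fixed effect, subject as random effect)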
Description: (§1) The pharmacokinetic study of Example 3 was continued with a second treatment group (cohort) to assess the pharmacokinetic profile of formulation F7 of Example 7 compared with that of formulation F2.
(§2) The following plasma pharmacokinetic parameters were calculated: AUClast, AUCinf, % AUCexp, Cmax, Clast, Tmax, Tlast, CL/F, Vz/F, and t1/2.
(§3) Pharmacokinetics: Individual subject concentration data and individual subject PK parameters for each analyte (compound of Formula 1, FTC, and TAF) were listed and summarized using descriptive statistics by treatment group (cohort) and treatment. Summary statistics were determined for both individual subject concentration data by time point, cohort, and treatment and individual subject PK parameters by cohort and treatment. Also, the geometric mean, 95% confidence interval (CI), and the mean, and standard deviation (SD) of the natural log-transformed values were presented for individual subject PK parameter data. The sample size for each time point was based on the number of subjects with nonmissing concentration data at that time point. The number of subjects with concentration below the level of quantitation (BLQ) was presented for each time point.
(§4) Statistical comparisons of the natural log-transformed PK parameters for each analyte and treatment comparison of interest were performed. The statistical modelling was based on the PK Analysis set for the analyte under evaluation. For each analyte, all subjects with available data for the PK parameter under evaluation were included in the modelling. The statistical comparisons using Treatment A as a reference only used data from this cohort, not from the earlier cohort of Example 3 (i.e., Treatment A was not pooled).
(§5) For each analyte and each PK parameter, a parametric (normal theory) mixed-effects ANOVA model was fitted to the natural log-transformed values of the PK parameter under evaluation. The statistical model included treatment as a fixed effect and subject as a random effect.

[4] = Physicochemical properties of the active ingredients (pKa, pH-dependent solubility and stability, BCS class); conditions: for pH of maximum solubility: pH-dependent solubility
[5] = in vivo
Description: as §1, §2, §3, §4, §5

[6] = human, plasma, oral, mean, F2 Compound of Formula I/F/TAF (75/200/25 mg), high-fat meal, Test, N = 28
[7] = human, plasma, oral, plasma, mean, F1 Compound of Formula I (75 mg) + F3 F/TAF (200/25 mg) co-administered, fasted, Reference, N = 28, cohort 1
[8] = 100 mg single dose, high-calorie/high-fat breakfast
[9] = F7 (50/200/25 mg), high fat meal, N = 27
[10] = F7 (50/200/25 mg), moderate fat meal, N = 27
[11] = Formulation F1 + F3 (75 mg + F/TAF 200/25 mg), fasted, Reference, N = 28, cohort 2
[12] = F2 (75/200/25 mg) high-fat meal / fasted
[13] = Test F2 (75/200/25 mg) / Reference F1 + F3, fasted
[14] = human, in vivo, plasma, mean, F1 Compound of Formula I (75 mg) + F3 F/TAF (200/25 mg) co-administered, fasted, Reference, N = 28, cohort 1
[15] = human, in vivo, plasma, mean, F2 Compound of Formula I/F/TAF (75/200/25 mg), high-fat meal, Test, N = 28
[16] = human, in vivo, plasma, mean, bilayer tablet F2 Compound of Formula I/F/TAF (75/200/25 mg), single dose, fasted, N = 28
[17] = Test F7 (50/200/25 mg) / Reference F1 + F3, fasted

O=C(NCc1c(F)cc(F)cc1F)c1cn2c(c(O)c1=O)C(=O)N1[C@H]3CC[C@H](C3)O[C@@H]1C2 [Compound of Formula I, (2R,5S,13aR)-8-hydroxy-7,9-dioxo-N-(2,4,6-trifluorobenzyl)-2,3,4,5,7,9,13,13a-octahydro-2,5-methanopyrido[1′,2′:4,5]pyrazino[2,1-b][1,3]oxazepine-10-carboxamide]
AUCinf higher after F2 than after F1 with F3 ([1]; fasted): 27% | Cmax higher after F2 than after F1 with F3 ([1]; fasted): 31% | total exposure higher in F2 than in F1 co-dosed with F3 ([1]; fasted): approximately 30% | AUC(0-inf) [1, 6]: 226000 ng·h/mL | AUC(0-inf) [1, 7]: 123000 ng·h/mL | AUC(0-t) [1, 6]: 217000 ng·h/mL | AUC(0-t) ([1]; human, plasma, oral, mean, bilayer tablet F2 Compound of Formula I/F/TAF (75/200/25 mg), single dose, fasted, N = 28): 152000 ng·h/mL | AUC(0-t) [1, 7]: 120000 ng·h/mL | Cmax [1, 7]: 5590 ng/mL | AUCinf ([1]; plasma, mean, bilayer tablet F2 Compound of Formula I/F/TAF (75/200/25 mg), single dose, fasted, N = 28): 156,637.5 h · ng/mL | AUCinf higher with high-fat meal than fasted ([1]; tablet formulation F2): 46% | Cmax higher with high-fat meal than fasted ([1]; tablet formulation F2): 27% | changes in clearance and t1/2 following administration with food ([2]; 100 mg single dose): no apparent changes | increase of GLSM value of AUCinf with food [2, 8]: 84% | increase of GLSM value of Cmax with food [2, 8]: 101% | AUC(0-inf) ([2]; Fasted): 118 µg·h/mL | AUC(0-t) ([2]; Fasted): 116 µg·h/mL | Cmax ([2]; Fasted): 5880 ng/mL | AUC(0-inf) ([2]; Fed (high-fat breakfast)): 214 µg·h/mL | AUC(0-t) ([2]; Fed (high-fat breakfast)): 209 µg·h/mL | Cmax ([2]; Fed (high-fat breakfast)): 11300 ng/mL | exposure in Formulation F7 compared with Formulation F2 ([3]; 50 mg vs 75 mg dose): proportionally lower | AUCinf, Mean (% CV) [3, 9]: 140,032.4 (21.8) hr · ng/mL | Cmax, Mean (% CV) [3, 9]: 5936.3 (18.3) ng/mL | AUCinf, Mean (% CV) [3, 10]: 140,197.7 (23.6) hr · ng/mL | Cmax, Mean (% CV) [3, 10]: 6279.6 (18.3) ng/mL | AUCinf, Mean (% CV) [3, 11]: 146,931.6 (31.1) hr · ng/mL | Cmax, Mean (% CV) [3, 11]: 6791.1 (26.4) ng/mL | AUCinf higher with high-fat meal than fasted ([3]; tablet formulation F7): 24% | AUCinf higher with moderate fat meal than fasted ([3]; tablet formulation F7): 24% | Cmax higher with high-fat meal than fasted ([3]; tablet formulation F7): 13% | Cmax higher with moderate fat meal than fasted ([3]; tablet formulation F7): 20% | BCS class [4]: BCS Class 2 | pH of maximum chemical stability [4]: 4 | pKa [4]: 8.6 | solubility (BCS classification) [4]: low solubility | pH of maximum solubility [4]: 10.5

Nc1nc(=O)n([C@@H]2CS[C@H](CO)O2)cc1F [Emtricitabine, 4-amino-5-fluoro-1-[(2R,5S)-2-(hydroxymethyl)-1,3-oxathiolan-5-yl]-1,2-dihydropyrimidin-2-one]
geometric mean ratio of AUCinf (food effect) ([1]; human, in vivo): 1.00 | geometric mean ratio of Cmax (food effect) ([1]; human, in vivo): 0.83 | exposure following F2 compared with F1 with the F/TAF FDC (F3) ([1]; in vivo): similar | exposure of Formulation F7 compared with coadministered reference tablets [5]: similar | BCS class [4]: BCS Class 1 | pKa [4]: 2.65 | solubility (BCS classification) [4]: high solubility

CC(C)OC(=O)[C@H](C)N[P@](=O)(CO[C@H](C)Cn1cnc2c(N)ncnc21)Oc1ccccc1 [Tenofovir alafenamide]
% GLSM Ratio of AUCinf [1, 12]: 158.20% | % GLSM Ratio of AUClast [1, 12]: 156.81% | % GLSM Ratio of Cmax [1, 12]: 83.22% | % GLSM Ratio of AUCinf [1, 13]: 91.56% | % GLSM Ratio of AUClast [1, 13]: 91.62% | % GLSM Ratio of Cmax [1, 13]: 95.47% | geometric mean ratio of AUCinf (food effect) ([1]; bilayer tablet formulation F2): 1.58 | geometric mean ratio of Cmax (food effect) ([1]; bilayer tablet formulation F2): 0.83 | exposure following F2 compared with F1 with the F/TAF FDC (F3) ([1]; fasted): similar | AUC(0-inf) [1, 14]: 225 ng·h/mL | AUC(0-inf) [1, 15]: 320 ng·h/mL | AUC(0-inf) [1, 16]: 207 ng·h/mL | AUC(0-t) [1, 14]: 224 ng·h/mL | AUC(0-t) [1, 15]: 315 ng·h/mL | AUC(0-t) [1, 16]: 206 ng·h/mL | Cmax [1, 14]: 277 ng/mL | Cmax [1, 15]: 212 ng/mL | Cmax [1, 16]: 253 ng/mL | geometric mean ratio of Cmax (food effect) ([1]; tablet formulation F1 (codosed with F3)): 0.85 | geometric mean ratio of AUCinf (food effect) ([1]; tablet formulation F1 codosed with tablet formulation F3): 1.75 | % GLSM Ratio (90% CI) of AUCinf ([3]; F7 high fat meal / fasted): 166.55 (146.54, 189.29) % | % GLSM Ratio (90% CI) of AUClast ([3]; F7 high fat meal / fasted): 162.62 (143.10, 184.80) % | % GLSM Ratio (90% CI) of Cmax ([3]; F7 high fat meal / fasted): 91.71 (73.46, 114.49) % | % GLSM Ratio (90% CI) of AUCinf ([3]; F7 moderate fat meal / fasted): 148.23 (130.42, 168.47) % | % GLSM Ratio (90% CI) of AUClast ([3]; F7 moderate fat meal / fasted): 148.20 (130.41, 168.41) % | % GLSM Ratio (90% CI) of Cmax ([3]; F7 moderate fat meal / fasted): 99.04 (79.33, 123.65) % | % GLSM Ratio (90% CI) of AUCinf [3, 17]: 85.48 (75.33, 97.00) % | % GLSM Ratio (90% CI) of AUClast [3, 17]: 85.37 (75.24, 96.85) % | % GLSM Ratio (90% CI) of Cmax [3, 17]: 84.17 (67.59, 104.81) % | Cmax lower for Formulation F7 than for the coadministered reference tablets ([3]; fasted): approximately 16% | exposure of Formulation F7 compared with coadministered reference tablets ([3]; fasted): similar | AUCinf, Mean (% CV) [3, 9]: 318.4 (32.8) hr · ng/mL | AUClast, Mean (% CV) [3, 9]: 310.3 (34.9) hr · ng/mL | Cmax, Mean (% CV) [3, 9]: 236.6 (65.1) ng/mL | AUCinf, Mean (% CV) [3, 10]: 293.1 (40.9) hr · ng/mL | AUClast, Mean (% CV) [3, 10]: 290.6 (41.3) hr · ng/mL | Cmax, Mean (% CV) [3, 10]: 251.1 (66.7) ng/mL | AUCinf, Mean (% CV) [3, 11]: 238.3 (45.0) hr · ng/mL | AUClast, Mean (% CV) [3, 11]: 236.7 (45.3) hr · ng/mL | Cmax, Mean (% CV) [3, 11]: 291.9 (55.4) ng/mL | BCS class [4]: BCS Class 3 | pKa [4]: 3.9 | solubility (BCS classification) [4]: high equilibrium solubility | permeability (BCS classification) ([4]; not told): lower apparent permeability | pH of maximum solubility [4]: ~3
